Test [1] concerns BT474 (human breast carcinoma). Briefly: In vitro tumor cell proliferation assay (Cell Titer-Glo luminescent cell viability), BT474 cells. It is filed as cell-based. To be noted: BT-474, 72 h drug exposure, ATP luminescence readout, read-out: IC50, anti-proliferative activity (inhibition of cell proliferation) in BT474 cells. An excerpt:
(§1) The tumor cell proliferation assay used to test the compounds of the present invention involves a readout called Cell Titer-Glow® Luminescent Cell Viability Assay developed by Promega® (Cunningham, B A “A Growing Issue: Cell Proliferation Assays, Modern kits ease quantification of cell growth” The Scientist 2001, 15(13), 26, and Crouch, S P et al., “The use of ATP bioluminescence as a measure of cell proliferation and cytotoxicity” Journal of Immunological Methods 1993, 160, 81-88), that measures inhibition of cell proliferation. Generation of a luminescent signal corresponds to the amount of ATP present, which is directly proportional to the number of metabolically active (proliferating) cells.
(§2) A431 cells (human epidermoid carcinoma, ATCC # HTB-20) and BT474 (human breast carcinoma, ATCC # CRL-1555) were plated at a density of 2.5×10^3 cells/well in 96 well black-clear bottom tissue culture plates in RPMI media with 10% Fetal Bovine Serum and incubated at 37° C. Twenty-four h later, test compounds are added at a final concentration range from as high 100 μm to as low 64 pM depend on the activities of the tested compounds in serial dilutions at a final DMSO concentration of 0.1%. Cells were incubated for 72 h at 37° C. in complete growth media after addition of the test compound. After 72 h of drug exposure, the plates were equilibrated to room temperature for approximately 30 min. Then, using a Promega Cell Titer Glo Luminescent® assay kit, lysis buffer containing 100 microliters of the enzyme luciferase and its substrate, luciferin mixture, was added to each well. The plates were mixed for 2 min on orbital shaker to ensure cell lysis and incubated for 10 min at room temperature to stabilize luminescence signal. The samples were read on VICTOR 2 using Luminescence protocol, and analyzed with Analyze5 software to generate IC50 values.
(§3) For determination of IC50's, a linear regression analysis can be used to determine drug concentration which results in a 50% inhibition of cell proliferation using this assay format. In A431 cells, Examples 1-7, 9-11, 14-18, and 20-21 have IC50's≦5 μM; whereas examples 8, 12, 13, 19, and 22 have IC50's≦50 μM. In BT474 cells, examples 1-7, 9-11, 13-18, and 20-22 have IC50's≦50 μM; whereas examples 8, 12, and 19 have IC50's≦50 μM.

Test [2] relates to A431 cells (human epidermoid carcinoma). Description: In vitro tumor cell proliferation assay (Cell Titer-Glo luminescent cell viability), A431 cells. The test is classed as cell-based. To be noted: A-431, 72 h drug exposure, ATP luminescence readout, read-out: IC50, anti-proliferative activity (inhibition of cell proliferation) in A431 cells.
Description: as §1, §2, §3
A general note: In ATP-based viability assays light output follows the ATP content of the culture.

Structures are written as SMILES. Where a name gives a salt, the structure may show the parent alone.

Regarding `Fc1ccc(Nc2ncnc3sc4c5cn(CCN6CCCCC6)nc5ccc4c23)cc1Cl` [Example 16, N-(3-chloro-4-fluorophenyl)-2-(2-piperidin-1-ylethyl)-2H-pyrimido[5′,4′:4,5]thieno[2,3-e]indazol-6-amine], the results for the IC50 in test [1] and in test [2] were not above 50 µM and not above 5 µM, respectively.

As to `COCCN(CCOC)CCn1cc2c(ccc3c2sc2ncnc(Nc4ccc(F)c(Cl)c4)c23)n1` [Example 8, 2-{2-[bis(2-methoxyethyl)amino]ethyl}-N-(3-chloro-4-fluorophenyl)-2H-pyrimido[5′,4′:4,5]thieno[2,3-e]indazol-6-amine], the IC50 in test [1] and in test [2] was not above 50 µM each time.

For `OCCN(CCO)CCn1cc2c(ccc3c2sc2ncnc(Nc4ccc(F)c(Cl)c4)c23)n1` [Example 14, 2,2′-[(2-{6-[(3-chloro-4-fluorophenyl)amino]-2H-pyrimido[5′,4′:4,5]thieno[2,3-e]indazol-2-yl}ethyl)imino]diethanoltrifluoroacetate (salt)], the results for the IC50 in test [1] and in test [2] were not above 50 µM and not above 5 µM, respectively.

Take `Fc1ccc(Nc2ncnc3sc4c5cn(CCn6ccnc6)nc5ccc4c23)cc1Cl` [Example 12, N-(3-chloro-4-fluorophenyl)-2-[2-(1H-imidazol-1-yl)ethyl]-2H-pyrimido[5′,4′:4,5]thieno[2,3-e]indazol-6-amine]: the IC50 in test [1] and in test [2] was not above 50 µM throughout.

Consider `OCCn1ncc2c3sc4ncnc(Nc5ccc(OCc6cccc(F)c6)c(Cl)c5)c4c3ccc21` [Example 21, 2-[6-({3-chloro-4-[(3-fluorobenzyl)oxy]phenyl}amino)-3H-pyrimido[5′,4′:4,5]thieno[2,3-e]indazol-3-yl]ethanol], for which the IC50 in test [1] was not above 50 µM; in test [2], not above 5 µM.

With `COCCNCCn1cc2c(ccc3c2sc2ncnc(Nc4ccc(F)c(Cl)c4)c23)n1` [Example 6, N-(3-chloro-4-fluorophenyl)-2-{2-[(2-methoxyethyl)amino]ethyl}-2H-pyrimido[5′,4′:4,5]thieno[2,3-e]indazol-6-amine], the results for the IC50 in test [1] and in test [2] were not above 50 µM and not above 5 µM, respectively.

For `CS(=O)(=O)CCNCCn1cc2c(ccc3c2sc2ncnc(Nc4ccc(F)c(Cl)c4)c23)n1` [Example 3, N-(3-chloro-4-fluorophenyl)-2-(2-{[2-(methylsulfonyl)ethyl]amino}ethyl)-2H-pyrimido[5′,4′:4,5]thieno[2,3-e]indazol-6-amine], the IC50 in test [1] was not above 50 µM; in test [2] it was not above 5 µM.

With `OCCNCCn1cc2c(ccc3c2sc2ncnc(Nc4ccc(F)c(Cl)c4)c23)n1` [Example 7, 2-[(2-{6-[(3-chloro-4-fluorophenyl)amino]-2H-pyrimido[5′,4′:4,5]thieno[2,3-e]indazol-2-yl}ethyl)amino]ethanol], the IC50 in test [1] is not above 50 µM; in test [2], not above 5 µM.

Regarding `Fc1ccc(Nc2ncnc3sc4c5cn(CCN6CCOCC6)nc5ccc4c23)cc1Cl` [Example 9, N-(3-chloro-4-fluorophenyl)-2-(2-morpholin-4-ylethyl)-2H-pyrimido[5′,4′:4,5]thieno[2,3-e]indazol-6-amine], the IC50 in test [1] was not above 50 µM; in test [2] it was not above 5 µM.

As to `CN1CCN(CCn2cc3c(ccc4c3sc3ncnc(Nc5ccc(F)c(Cl)c5)c34)n2)CC1` [Example 11, N-(3-chloro-4-fluorophenyl)-2-[2-(4-methylpiperazin-1-yl)ethyl]-2H-pyrimido[5′,4′:4,5]thieno[2,3-e]indazol-6-amine], the IC50 is not above 50 µM in test [1] and not above 5 µM in test [2].

In the case of `CN(C)[C@H]1CCN(CCn2cc3c(ccc4c3sc3ncnc(Nc5ccc(F)c(Cl)c5)c34)n2)C1` [Example 13, N-(3-chloro-4-fluorophenyl)-2-{2-[(3S)-3-(dimethylamino)pyrrolidin-1-yl]ethyl}-2H-pyrimido[5′,4′:4,5]thieno[2,3-e]indazol-6-amine], the IC50 in test [1] and in test [2] was not above 50 µM each time.

For `COCCN1CCN(CCn2cc3c(ccc4c3sc3ncnc(Nc5ccc(F)c(Cl)c5)c34)n2)CC1` [Example 15, N-(3-chloro-4-fluorophenyl)-2-{2-[4-(2-methoxyethyl)piperazin-1-yl]ethyl}-2H-pyrimido[5′,4′:4,5]thieno[2,3-e]indazol-6-amine], the IC50 is not above 50 µM in test [1] and not above 5 µM in test [2].

For the compound `CN(C)[C@H]1CCN(CCn2ncc3c4sc5ncnc(Nc6ccc(F)c(Cl)c6)c5c4ccc32)C1` [Example 20, N-(3-chloro-4-fluorophenyl)-3-{2-[(3S)-3-(dimethylamino)pyrrolidin-1-yl]ethyl}-3H-pyrimido[5′,4′:4,5]thieno[2,3-e]indazol-6-amine], the IC50 was not above 50 µM in test [1] and not above 5 µM in test [2].

Regarding `Fc1ccc(Nc2ncnc3sc4c5cn(CCN6CCN(Cc7ccncc7)CC6)nc5ccc4c23)cc1Cl` [Example 18, N-(3-chloro-4-fluorophenyl)-2-{2-[4-(pyridin-4-ylmethyl)piperazin-1-yl]ethyl}-2H-pyrimido[5′,4′:4,5]thieno[2,3-e]indazol-6-amine], the IC50 in test [1] was not above 50 µM; in test [2], not above 5 µM.

As to `Fc1ccc(Nc2ncnc3sc4c5cn(CCN6CCNCC6)nc5ccc4c23)cc1Cl` [Example 10, N-(3-chloro-4-fluorophenyl)-2-(2-piperazin-1-ylethyl)-2H-pyrimido[5′,4′:4,5]thieno[2,3-e]indazol-6-amine], the results for the IC50 in test [1] and in test [2] were not above 50 µM and not above 5 µM, respectively.

Take `Fc1ccc(Nc2ncnc3sc4c5cn(CCN6CCCC6)nc5ccc4c23)cc1Cl` [Example 17, N-(3-chloro-4-fluorophenyl)-2-(2-pyrrolidin-1-ylethyl)-2H-pyrimido[5′,4′:4,5]thieno[2,3-e]indazol-6-amine]: the IC50 is not above 50 µM in test [1] and not above 5 µM in test [2].

In the case of `CS(=O)(=O)OCCn1cc2c(ccc3c2sc2ncnc(Nc4ccc(F)c(Cl)c4)c23)n1` [Example 2, 2-{6-[(3-chloro-4fluorophenyl)amino]-2H-pyrimido[5′,4′:4,5]thieno[2,3-e]indazol-2-yl}ethylmethanesulfonate], the IC50 was not above 50 µM in test [1] and not above 5 µM in test [2].

On to `Fc1ccc(Nc2ncnc3sc4c5cn(CCNCCN6CCOCC6)nc5ccc4c23)cc1Cl` [Example 5, N-(3-chloro-4-fluorophenyl)-2-{2-[(2-morpholin-4-ylethyl)amino]ethyl}-2H-pyrimido[5′,4′:4,5]thieno[2,3-e]indazol-6-amine], for which the IC50 in test [1] is not above 50 µM; in test [2], not above 5 µM.

For the compound `COCCN(C)CCn1cc2c(ccc3c2sc2ncnc(Nc4ccc(F)c(Cl)c4)c23)n1` [Example 19, N-(3-chloro-4-fluorophenyl)-2-{2-[(2-methoxyethyl)(methyl)amino]ethyl}-2H-pyrimido[5′,4′:4,5]thieno[2,3-e]indazol-6-amine], the IC50 in test [1] and in test [2] was not above 50 µM each time.

Turning to `Clc1cc(Nc2ncnc3sc4c(ccc5c4cnn5CCBr)c23)ccc1OCc1ccccn1` [Example 22, 3-(2-bromoethyl)-N-[3-chloro-4-(pyridin-2-ylmethoxy)phenyl]-3H-pyrimido[5′,4′:4,5]thieno[2,3-e]indazol-6-amine], the IC50 in test [1] and in test [2] was not above 50 µM throughout.

On to `OCCn1cc2c(ccc3c2sc2ncnc(Nc4ccc(F)c(Cl)c4)c23)n1` [Example 1, 2-{6-[(3-chloro-4fluorophenyl)amino]-2H-pyrimido[5′,4′:4,5]thieno[2,3-e]indazol-2-yl}ethanol], for which the IC50 in test [1] was not above 50 µM; in test [2] it was not above 5 µM.

Turning to `CN(C)[C@@H]1CCN(CCn2cc3c(ccc4c3sc3ncnc(Nc5ccc(F)c(Cl)c5)c34)n2)C1` [Example 4], the IC50 in test [1] was not above 50 µM; in test [2], not above 5 µM.

The values above are taken from patent publication US7511048B2, “Pyrimidothienoindazoles” (Bayer Pharmaceuticals Corporation, priority 2004, dated 2009).
